# Results taken from ChEMBL document CHEMBL5291721, “A preclinical secondary pharmacology resource illuminates target-adverse drug reaction associations of marketed drugs” (Nat Commun, 2023).
# How the values were obtained:
# [1] = molecular target: T1, D(4) dopamine receptor (Homo sapiens, UniProt P21917)
# T1 sequence (P21917 whole entry): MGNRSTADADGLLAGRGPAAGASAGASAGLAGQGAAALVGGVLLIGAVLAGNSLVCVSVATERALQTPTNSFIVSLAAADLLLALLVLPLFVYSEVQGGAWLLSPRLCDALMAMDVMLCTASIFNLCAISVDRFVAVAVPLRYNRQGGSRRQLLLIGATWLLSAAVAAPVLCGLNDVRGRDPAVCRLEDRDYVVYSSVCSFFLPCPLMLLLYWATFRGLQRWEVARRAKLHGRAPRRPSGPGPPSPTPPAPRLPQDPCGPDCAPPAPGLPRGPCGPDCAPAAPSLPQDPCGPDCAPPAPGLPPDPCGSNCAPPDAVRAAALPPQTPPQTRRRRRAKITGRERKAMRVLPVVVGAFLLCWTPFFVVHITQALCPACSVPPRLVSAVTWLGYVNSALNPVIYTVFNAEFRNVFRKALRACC
# [2] = molecular target: 5-hydroxytryptamine receptor 2B (Homo sapiens, UniProt P41595)
# [3] = molecular target: T2, Alpha-2A adrenergic receptor (Homo sapiens, UniProt P08913)
# T2 sequence (P08913 whole entry): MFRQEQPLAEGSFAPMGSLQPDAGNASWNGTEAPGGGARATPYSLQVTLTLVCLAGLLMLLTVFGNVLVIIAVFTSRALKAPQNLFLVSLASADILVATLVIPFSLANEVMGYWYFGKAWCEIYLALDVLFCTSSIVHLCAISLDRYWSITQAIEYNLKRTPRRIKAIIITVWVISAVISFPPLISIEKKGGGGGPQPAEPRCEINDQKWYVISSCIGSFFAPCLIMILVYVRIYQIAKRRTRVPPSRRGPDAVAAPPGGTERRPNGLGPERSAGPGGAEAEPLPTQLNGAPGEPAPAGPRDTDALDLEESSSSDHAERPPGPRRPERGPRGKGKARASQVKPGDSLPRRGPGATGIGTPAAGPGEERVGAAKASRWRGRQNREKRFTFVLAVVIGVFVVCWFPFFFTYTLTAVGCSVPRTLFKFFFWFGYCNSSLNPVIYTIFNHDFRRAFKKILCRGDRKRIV
# [4] = molecular target: T3, Muscarinic acetylcholine receptor M1 (Homo sapiens, UniProt P11229); type: functional, cell-based
# T3 sequence (P11229 whole entry): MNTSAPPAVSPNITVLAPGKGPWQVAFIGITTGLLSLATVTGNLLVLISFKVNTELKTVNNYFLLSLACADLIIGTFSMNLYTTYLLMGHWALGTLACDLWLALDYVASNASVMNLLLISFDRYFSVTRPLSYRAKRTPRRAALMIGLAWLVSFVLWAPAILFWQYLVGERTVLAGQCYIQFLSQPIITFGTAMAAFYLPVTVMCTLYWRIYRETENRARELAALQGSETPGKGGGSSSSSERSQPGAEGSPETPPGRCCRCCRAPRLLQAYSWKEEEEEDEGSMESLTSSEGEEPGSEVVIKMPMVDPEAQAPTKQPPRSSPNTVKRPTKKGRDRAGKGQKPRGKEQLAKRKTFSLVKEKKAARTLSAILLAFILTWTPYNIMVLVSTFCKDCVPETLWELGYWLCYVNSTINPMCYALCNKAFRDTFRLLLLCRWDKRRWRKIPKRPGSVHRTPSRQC
# [5] = molecular target: 3',5'-cyclic-AMP phosphodiesterase 4A (Homo sapiens, UniProt P27815); type: functional
# [6] = molecular target: T4, 5-hydroxytryptamine receptor 1A (Homo sapiens, UniProt P08908)
# T4 sequence (P08908 whole entry): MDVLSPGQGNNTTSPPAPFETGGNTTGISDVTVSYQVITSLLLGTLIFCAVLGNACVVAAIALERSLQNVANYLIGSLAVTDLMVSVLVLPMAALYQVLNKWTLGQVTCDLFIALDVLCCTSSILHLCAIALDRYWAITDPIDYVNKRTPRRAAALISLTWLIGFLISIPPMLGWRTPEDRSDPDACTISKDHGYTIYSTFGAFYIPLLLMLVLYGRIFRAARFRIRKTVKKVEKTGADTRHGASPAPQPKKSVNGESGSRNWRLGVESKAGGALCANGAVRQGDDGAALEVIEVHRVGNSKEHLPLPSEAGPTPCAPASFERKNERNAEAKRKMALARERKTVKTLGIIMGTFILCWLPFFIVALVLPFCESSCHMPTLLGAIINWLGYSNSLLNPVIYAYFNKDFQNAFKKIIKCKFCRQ
# [7] = molecular target: Gamma-aminobutyric acid receptor subunit alpha-1 (Rattus norvegicus, UniProt P62813)
# [8] = molecular target: Sodium-dependent noradrenaline transporter (Homo sapiens, UniProt P23975)
# [9] = molecular target: Histamine H1 receptor (Homo sapiens, UniProt P35367); type: functional, cell-based
# [10] = molecular target: T5, Peroxisome proliferator-activated receptor gamma (Homo sapiens, UniProt P37231); type: functional
# T5 sequence (P37231 whole entry): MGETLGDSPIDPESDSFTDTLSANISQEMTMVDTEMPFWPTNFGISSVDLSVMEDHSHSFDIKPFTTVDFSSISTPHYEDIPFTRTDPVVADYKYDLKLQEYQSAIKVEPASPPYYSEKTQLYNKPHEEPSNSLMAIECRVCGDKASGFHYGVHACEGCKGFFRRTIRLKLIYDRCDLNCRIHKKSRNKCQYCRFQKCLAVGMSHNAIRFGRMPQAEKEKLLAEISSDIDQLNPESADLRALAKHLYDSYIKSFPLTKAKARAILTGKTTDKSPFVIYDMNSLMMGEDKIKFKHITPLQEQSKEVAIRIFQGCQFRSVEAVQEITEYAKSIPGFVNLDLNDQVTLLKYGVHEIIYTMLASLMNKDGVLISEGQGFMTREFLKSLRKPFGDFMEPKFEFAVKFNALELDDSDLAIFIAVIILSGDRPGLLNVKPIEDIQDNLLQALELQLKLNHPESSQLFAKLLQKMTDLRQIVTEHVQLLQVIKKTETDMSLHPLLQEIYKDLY
# Note: assay procedure not described here.
# 3',5'-cyclic-AMP phosphodiesterase 4A, sequence (P27815 whole entry): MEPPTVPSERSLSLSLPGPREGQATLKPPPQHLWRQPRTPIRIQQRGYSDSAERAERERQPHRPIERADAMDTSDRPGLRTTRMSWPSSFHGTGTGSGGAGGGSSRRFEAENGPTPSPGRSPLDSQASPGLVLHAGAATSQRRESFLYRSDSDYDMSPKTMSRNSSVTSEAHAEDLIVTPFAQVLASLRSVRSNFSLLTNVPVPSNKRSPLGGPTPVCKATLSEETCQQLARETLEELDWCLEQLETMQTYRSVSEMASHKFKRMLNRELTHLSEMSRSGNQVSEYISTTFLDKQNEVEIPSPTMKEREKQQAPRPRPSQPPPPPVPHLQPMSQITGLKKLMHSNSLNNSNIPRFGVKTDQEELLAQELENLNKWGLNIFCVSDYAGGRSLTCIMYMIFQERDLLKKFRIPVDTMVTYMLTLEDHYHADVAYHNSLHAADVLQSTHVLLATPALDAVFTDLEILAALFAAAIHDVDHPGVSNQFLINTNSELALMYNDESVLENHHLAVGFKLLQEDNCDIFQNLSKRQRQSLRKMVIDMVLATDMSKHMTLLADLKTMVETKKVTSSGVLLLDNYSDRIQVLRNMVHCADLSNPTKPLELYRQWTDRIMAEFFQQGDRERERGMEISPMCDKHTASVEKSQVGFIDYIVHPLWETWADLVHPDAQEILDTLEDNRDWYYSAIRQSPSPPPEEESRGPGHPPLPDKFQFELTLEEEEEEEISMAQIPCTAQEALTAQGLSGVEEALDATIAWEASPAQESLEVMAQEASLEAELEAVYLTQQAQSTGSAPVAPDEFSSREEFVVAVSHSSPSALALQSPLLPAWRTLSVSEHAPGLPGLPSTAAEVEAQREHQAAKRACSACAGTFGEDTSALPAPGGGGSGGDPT
# Histamine H1 receptor, sequence (P35367 whole entry): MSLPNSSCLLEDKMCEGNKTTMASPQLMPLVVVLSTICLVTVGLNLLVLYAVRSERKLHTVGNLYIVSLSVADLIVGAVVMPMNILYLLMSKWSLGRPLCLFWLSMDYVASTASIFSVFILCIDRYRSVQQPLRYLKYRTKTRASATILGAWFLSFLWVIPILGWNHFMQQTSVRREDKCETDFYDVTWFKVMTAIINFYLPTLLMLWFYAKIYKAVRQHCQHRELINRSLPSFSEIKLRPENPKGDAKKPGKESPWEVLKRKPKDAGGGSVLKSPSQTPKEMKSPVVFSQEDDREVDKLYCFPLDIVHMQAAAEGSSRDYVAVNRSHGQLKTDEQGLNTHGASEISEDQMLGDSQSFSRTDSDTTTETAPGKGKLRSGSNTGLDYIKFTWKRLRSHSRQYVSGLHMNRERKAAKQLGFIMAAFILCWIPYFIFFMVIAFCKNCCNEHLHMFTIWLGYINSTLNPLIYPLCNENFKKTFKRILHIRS
# Sodium-dependent noradrenaline transporter, sequence (P23975 whole entry): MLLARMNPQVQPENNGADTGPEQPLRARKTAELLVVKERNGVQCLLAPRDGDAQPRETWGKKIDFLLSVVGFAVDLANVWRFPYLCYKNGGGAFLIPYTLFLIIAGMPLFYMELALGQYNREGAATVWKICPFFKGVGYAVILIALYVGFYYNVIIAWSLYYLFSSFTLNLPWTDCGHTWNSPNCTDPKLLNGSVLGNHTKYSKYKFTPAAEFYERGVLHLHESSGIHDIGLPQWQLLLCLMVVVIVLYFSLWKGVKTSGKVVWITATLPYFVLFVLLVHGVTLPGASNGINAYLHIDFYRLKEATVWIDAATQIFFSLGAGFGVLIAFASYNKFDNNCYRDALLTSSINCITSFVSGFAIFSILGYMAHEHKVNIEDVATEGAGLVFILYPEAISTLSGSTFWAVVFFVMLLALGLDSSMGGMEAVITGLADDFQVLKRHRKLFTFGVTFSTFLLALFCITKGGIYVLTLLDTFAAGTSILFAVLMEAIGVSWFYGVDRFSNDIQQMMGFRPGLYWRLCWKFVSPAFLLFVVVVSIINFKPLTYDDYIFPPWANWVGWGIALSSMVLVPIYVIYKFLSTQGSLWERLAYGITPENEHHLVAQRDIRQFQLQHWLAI
# 5-hydroxytryptamine receptor 2B, sequence (P41595 whole entry): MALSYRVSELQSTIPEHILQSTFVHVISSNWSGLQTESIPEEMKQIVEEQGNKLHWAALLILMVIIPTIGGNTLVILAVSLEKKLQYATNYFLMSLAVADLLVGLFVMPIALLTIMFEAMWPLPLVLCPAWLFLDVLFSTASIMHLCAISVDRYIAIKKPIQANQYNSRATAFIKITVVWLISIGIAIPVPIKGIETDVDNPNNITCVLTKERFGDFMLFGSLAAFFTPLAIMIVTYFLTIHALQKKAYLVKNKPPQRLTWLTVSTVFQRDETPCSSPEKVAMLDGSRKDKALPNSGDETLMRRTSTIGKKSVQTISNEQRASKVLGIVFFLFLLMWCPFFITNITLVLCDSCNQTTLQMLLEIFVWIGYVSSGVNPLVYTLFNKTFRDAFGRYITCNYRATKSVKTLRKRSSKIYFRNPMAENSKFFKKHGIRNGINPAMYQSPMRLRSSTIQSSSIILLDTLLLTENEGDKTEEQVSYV
# Gamma-aminobutyric acid receptor subunit alpha-1, sequence (P62813 whole entry): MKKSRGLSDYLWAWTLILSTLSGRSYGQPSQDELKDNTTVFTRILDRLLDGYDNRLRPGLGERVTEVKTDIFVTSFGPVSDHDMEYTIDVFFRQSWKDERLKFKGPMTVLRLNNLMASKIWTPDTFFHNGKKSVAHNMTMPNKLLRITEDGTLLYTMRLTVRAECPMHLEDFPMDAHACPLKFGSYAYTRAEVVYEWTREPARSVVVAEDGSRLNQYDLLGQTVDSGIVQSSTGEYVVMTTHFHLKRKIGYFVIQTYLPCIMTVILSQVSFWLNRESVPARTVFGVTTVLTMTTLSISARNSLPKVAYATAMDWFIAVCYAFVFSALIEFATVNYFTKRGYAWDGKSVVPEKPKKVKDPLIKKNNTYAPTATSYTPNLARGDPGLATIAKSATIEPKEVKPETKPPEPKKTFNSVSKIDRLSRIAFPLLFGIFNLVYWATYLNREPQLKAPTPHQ
smiles,measurement,setting,value
Cn1c(=O)cc(N2CCC[C@@H](N)C2)n(Cc2ccccc2C#N)c1=O [ALOGLIPTIN],AC50,[1],> 10 µM
same,AC50,[2],> 10 µM
same,AC50,[3],> 10 µM
Nc1c2ccccc2nc2ccccc12 [AMINACRINE],AC50,[4],20.4 µM
same,AC50,[5],> 30 µM
same,AC50,[6],> 30 µM
same,AC50,[7],> 30 µM
same,AC50,[8],2.95 µM
CCN1CCCC1CNC(=O)c1cc(S(=O)(=O)CC)c(N)cc1OC (configuration not stated) [AMISULPRIDE],AC50,[9],> 30 µM
same,AC50,[10],> 30 µM
Oc1ccc2c(c1)[C@@]13CCCC[C@@]1(O)[C@@H](C2)N(CC1CCC1)CC3 [BUTORPHANOL],AC50,[10],> 30 µM
"O=C(O)CCCCC1CCSS1 (stereo not drawn) [LIPOIC ACID, ALPHA]",AC50,[5],> 30 µM
same,AC50,[6],> 30 µM
same,AC50,[8],> 30 µM
Cc1ncc2n1-c1ccc(Cl)cc1C(c1ccccc1F)=NC2 [MIDAZOLAM],AC50,[3],> 10 µM
OCc1cc(C(O)CNCCCCCCOCCCCc2ccccc2)ccc1O (configuration not stated) [SALMETEROL],AC50,[9],> 30 µM
Cn1cnc2c(F)c(Nc3ccc(Br)cc3Cl)c(C(=O)NOCCO)cc21 [SELUMETINIB],AC50,[2],> 10 µM
